Laboratory results as given in patent US20020132776A1, “Inhibitors of transglutaminase” (N-Zyme Biotech GmbH, priority 2000, published 2002).
Where a SMILES comes first, the peptide text is derived from it. The star is where a group is joined. Cbz = O=C(OCc1ccccc1)*; ClAc = O=C(CCl)*; For = O=C*

Target: T1, guinea pig liver transglutaminase (Cavia cutleri, UniProt P08587)
T1 sequence (P08587 1-690): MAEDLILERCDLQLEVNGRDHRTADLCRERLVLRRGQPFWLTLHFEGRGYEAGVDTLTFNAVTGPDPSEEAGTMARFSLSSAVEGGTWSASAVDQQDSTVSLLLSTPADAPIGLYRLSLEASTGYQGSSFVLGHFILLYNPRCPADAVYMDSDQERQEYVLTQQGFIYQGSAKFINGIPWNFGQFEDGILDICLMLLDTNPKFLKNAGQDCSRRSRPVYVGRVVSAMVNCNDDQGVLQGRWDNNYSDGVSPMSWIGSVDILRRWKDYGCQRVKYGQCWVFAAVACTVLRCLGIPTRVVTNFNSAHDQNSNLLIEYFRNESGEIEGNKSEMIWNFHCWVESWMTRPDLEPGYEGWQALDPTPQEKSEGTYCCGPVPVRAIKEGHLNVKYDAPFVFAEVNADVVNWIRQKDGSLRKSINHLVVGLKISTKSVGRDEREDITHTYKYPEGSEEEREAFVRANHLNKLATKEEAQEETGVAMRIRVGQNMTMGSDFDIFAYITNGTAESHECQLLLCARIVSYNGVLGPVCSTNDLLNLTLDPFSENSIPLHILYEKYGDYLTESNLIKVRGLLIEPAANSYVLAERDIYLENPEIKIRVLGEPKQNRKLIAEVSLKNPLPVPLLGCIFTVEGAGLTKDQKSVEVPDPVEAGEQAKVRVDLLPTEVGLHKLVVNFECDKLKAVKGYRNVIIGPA
Assay: Guinea pig liver transglutaminase, incorporation of hydroxylamine into CBZ-Gln-Gly (Example 31)
Type: biochemical
Conditions: 0-10 μM inhibitor, 15 min at 25° C.
Procedure: The inhibitor tests were carried out in analogy to the factor XIII test in microtiter plates. In this case, the incorporation of hydroxylamine into carbobenzoxy-L-glutaminylglycine (CBZ-Gln-Gly) was investigated [modified method of Grossowicz et al., J. Biol. Chem., 187, 111 -125 (1950)].
25 μl (0-10 μM) of inhibitor were added to 25 μl (5.0 U/ml) of guinea pig liver transglutaminase (Sigma) and incubated at 25° C. for 15 min. Then 100 μl of 0.2 M tris-acetate buffer, pH 6.0, with 30 mm CBZ-Gln-Gly, 0.1 M hydroxylamine and 10 mM glutathione were pipetted in. After 10 min at 37° C., the absorption at 492 nm was measured using a microtiter plate reader.

Compound | Inhibitor concentration at which guinea pig liver transglutaminase is inhibited [µM]
O=CCC[C@H](NC(=O)OCc1ccccc1)C(=O)NCC(=O)O [γ-Aldehyde of carbobenzoxy-L-glutamylglycine] | 1

Target: T2, factor XIIIa (Homo sapiens, UniProt P00488)
T2 sequence (P00488 39-732 limits assumed): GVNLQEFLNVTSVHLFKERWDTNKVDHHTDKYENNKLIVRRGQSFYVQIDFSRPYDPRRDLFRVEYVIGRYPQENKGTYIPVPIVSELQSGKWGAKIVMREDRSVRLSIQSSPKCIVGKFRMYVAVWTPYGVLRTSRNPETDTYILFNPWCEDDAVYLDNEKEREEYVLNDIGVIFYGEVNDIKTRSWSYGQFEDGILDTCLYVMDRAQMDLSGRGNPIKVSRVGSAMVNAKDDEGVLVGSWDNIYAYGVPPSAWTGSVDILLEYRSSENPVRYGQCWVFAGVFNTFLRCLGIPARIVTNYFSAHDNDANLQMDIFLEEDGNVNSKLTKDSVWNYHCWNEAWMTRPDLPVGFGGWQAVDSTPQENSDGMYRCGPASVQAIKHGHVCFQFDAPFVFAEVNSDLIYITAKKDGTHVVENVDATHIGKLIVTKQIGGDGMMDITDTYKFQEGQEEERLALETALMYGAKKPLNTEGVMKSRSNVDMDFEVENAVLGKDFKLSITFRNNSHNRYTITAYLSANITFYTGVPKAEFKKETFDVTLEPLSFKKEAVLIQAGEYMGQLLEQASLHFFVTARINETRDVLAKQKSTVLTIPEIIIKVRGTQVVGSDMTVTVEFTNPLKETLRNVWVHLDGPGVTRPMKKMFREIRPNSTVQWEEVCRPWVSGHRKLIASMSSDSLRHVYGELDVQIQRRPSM
Assay: Factor XIIIa fibrin coagulation/crosslinking inhibitor test (Example 31)
Type: biochemical
Conditions: inhibitor concentration range 0 to 10 μm; absorption of clots at 405 nm
Procedure: The inhibitor tests were carried out in microtiter plates (0.2 ml). This entailed examination of the ability of the plasma transglutaminase to catalyze the coagulation of fibrin with and without inhibitor [modified method of Tymiak et al., J. Antibiot., 46, 204-206 (1993)].
40 μl of bovine fibrinogen (3 mg/ml, Sigma) in 25 mm Tris-HCl with 100 mm NaCl and 2.5 mm Ca^2+, pH 7.5, were incubated with 2 U/ml bovine thrombin (Sigma) at 25° C. for 10 min.
In a second mixture in parallel therewith, likewise 2 U/ml bovine thrombin (Sigma) were added to 20 μg/ml FXIII in 25 mm Tris-HCl with 100 mm NaCl and 2.5 mm Ca^2+, pH 7.5, and incubated at 25° C. for 10 min. The γ-aldehyde inhibitor concentration was then adjusted so that the measurements covered a concentration range from 0 to 10 μm. The reaction mixture was incubated at 25° C. for 15 min.
The two mixtures were combined and, after an incubation at 30° C. for 15 min, 150 μl of urea (8 M) were added. The absorption of the clots was measured at 405 nm.

Compound | Inhibition of factor XIIIa (fibrin crosslinking)
O=CCC[C@H](NC(=O)OCc1ccccc1)C(=O)NCC(=O)O [γ-Aldehyde of carbobenzoxy-L-glutamylglycine] | cannot be inhibited
γ-Aldehyde of tert-butyloxycarbonyl-L-glutaminyl-L-glutaminyl-L-isoleucyl-L-valine | effective factor XIIIa inhibitor

Target: T1, guinea pig liver transglutaminase
Assay: Inhibition of tissue transglutaminase, hydroxamate assay (Example 29)
Type: biochemical
Conditions: 0.05 mM inhibitor; 20 min preincubation at 37° C.; first block r5-r22
Procedure: The inhibitors are dissolved in dimethyl sulfoxide (DMSO) at a concentration of 100 mM. Solutions having a concentration of 10 mM, 1 mM and 0.1 mM are prepared by dilution with transglutaminase buffer (50 mM Tris-HCl, pH 7.0, 5 mM CaCl2, 2 mM DTT).
Afterwards, inhibition takes place by incubation (20 minutes at 37° C.) of 25 μL of a transglutaminase solution (bacterial transglutaminase or guinea pig liver transglutaminase, respectively) with 25 μL of the respective inhibitor solution. Immediately after the incubation has finished, 100 μL of substrate solution (0.1 mM hydroxylamine, 30 mM CBZ-Gln-Gly-OH, 2 mM DTT, 5 mM CaCl2 in 50 mM Tris-HCl, pH 7.0) are added and it is incubated for 10 minutes at 37° C. The reaction is stopped with 100 μL of a solution of 4% (w/v) HCl, 1.7% (w/v) FeCl3 and 4% (w/v) trichloroacetic acid [see Grossowicz et al., J. Biol. Chem. 187, 111-125, 1950]. After centrifugation (10 minutes, 10,000× g) the extinction of the supernatant solution at 492 nm in the microtiter plate reader and, thus, the remaining activity of the transglutaminase is determined.

Compound | Inhibition of tissue transglutaminase at an inhibitor concentration of 0.05 mM [%]
O=C(O)CNC(=O)[C@H](COC(=O)CCl)NC(=O)OCc1ccccc1 [Carbobenzoxy-L-serylglycine β-Chloroacetate] (Cbz-Ser(ClAc)-Gly-OH) | 1
CC(=O)OC[C@H](NC(=O)OCc1ccccc1)C(=O)NCC(=O)O [Carbobenzoxy-L-serylglycine β-acetate, Carbobenzoxy-L-serylqlycine β-acetate] (Cbz-Ser(Ac)-Gly-OH) | 0
O=COC[C@H](NC(=O)OCc1ccccc1)C(=O)NCC(=O)O [Carbobenzoxy-L-serylglycine β-formate, Carbobenzoxy-L-serylglycine β-Formate] (Cbz-Ser(For)-Gly-OH) | 0
CC(C)(C)OC(=O)CNC(=O)[C@H](CNC(N)=O)NC(=O)OCc1ccccc1 [Carbobenzoxy-β-(N-carbamoyl)-L-aminoalanylglycine tert-butyl Ester] | 0
CCOC(=O)CNC(=O)[C@H](COC(C)=O)NC(=O)OCc1ccccc1 [Carbobenzoxy-β-(O-acetyl)-L-serylglycine Ethyl Ester] (Cbz-Ser(Ac)-Gly-OEt) | 0
CCOC(=O)CNC(=O)[C@H](COC(=O)CCl)NC(=O)OCc1ccccc1 [Carbobenzoxy-β-(O-chloroacetyl)-L-serylglycine Ethyl Ester] (Cbz-Ser(ClAc)-Gly-OEt) | 2
CCOC(=O)CNC(=O)[C@H](COC=O)NC(=O)OCc1ccccc1 [Carbobenzoxy-β-(O-formyl)-L-serylglycine Ethyl Ester] (Cbz-Ser(For)-Gly-OEt) | 0
Carbobenzoxy-β-(O-carbamoyl)-L-serylglycine Ethyl Ester | 0

Same assay, conditions: 0.05 mM inhibitor; 20 min preincubation at 37° C.; first block r5-r22; read-out: Inhibition of tissue transglutaminase at an inhibitor concentration of 0.05 mM

Compound | inhibition at 50 µM [%]
NC(=O)NC[C@H](NC(=O)OCc1ccccc1)C(=O)NCC(=O)O [Carbobenzoxy-β-ureido-L-alanylglycine] | 0

Same assay, conditions: 0.5 mM inhibitor; 20 min preincubation at 37° C.; first block r5-r22

Compound | Inhibition of tissue transglutaminase at an inhibitor concentration of 0.5 mM [%]
O=C(O)CNC(=O)[C@H](COC(=O)CCl)NC(=O)OCc1ccccc1 [Carbobenzoxy-L-serylglycine β-Chloroacetate] (Cbz-Ser(ClAc)-Gly-OH) | 43
CC(=O)OC[C@H](NC(=O)OCc1ccccc1)C(=O)NCC(=O)O [Carbobenzoxy-L-serylglycine β-acetate, Carbobenzoxy-L-serylqlycine β-acetate] (Cbz-Ser(Ac)-Gly-OH) | 0
O=COC[C@H](NC(=O)OCc1ccccc1)C(=O)NCC(=O)O [Carbobenzoxy-L-serylglycine β-formate, Carbobenzoxy-L-serylglycine β-Formate] (Cbz-Ser(For)-Gly-OH) | 0
CC(C)(C)OC(=O)CNC(=O)[C@H](CNC(N)=O)NC(=O)OCc1ccccc1 [Carbobenzoxy-β-(N-carbamoyl)-L-aminoalanylglycine tert-butyl Ester] | 0
CCOC(=O)CNC(=O)[C@H](COC(C)=O)NC(=O)OCc1ccccc1 [Carbobenzoxy-β-(O-acetyl)-L-serylglycine Ethyl Ester] (Cbz-Ser(Ac)-Gly-OEt) | 0
CCOC(=O)CNC(=O)[C@H](COC(=O)CCl)NC(=O)OCc1ccccc1 [Carbobenzoxy-β-(O-chloroacetyl)-L-serylglycine Ethyl Ester] (Cbz-Ser(ClAc)-Gly-OEt) | 7
CCOC(=O)CNC(=O)[C@H](COC=O)NC(=O)OCc1ccccc1 [Carbobenzoxy-β-(O-formyl)-L-serylglycine Ethyl Ester] (Cbz-Ser(For)-Gly-OEt) | 0
Carbobenzoxy-β-(O-carbamoyl)-L-serylglycine Ethyl Ester | 0

Same assay, conditions: 0.5 mM inhibitor; 20 min preincubation at 37° C.; first block r5-r22; read-out: Inhibition of tissue transglutaminase at an inhibitor concentration of 0.5 mM

Compound | inhibition at 500 µM [%]
NC(=O)NC[C@H](NC(=O)OCc1ccccc1)C(=O)NCC(=O)O [Carbobenzoxy-β-ureido-L-alanylglycine] | 0

Same assay, conditions: 5 mM inhibitor; 20 min preincubation at 37° C.; first block r5-r22

Compound | Inhibition of tissue transglutaminase at an inhibitor concentration of 5 mM [%]
O=C(O)CNC(=O)[C@H](COC(=O)CCl)NC(=O)OCc1ccccc1 [Carbobenzoxy-L-serylglycine β-Chloroacetate] (Cbz-Ser(ClAc)-Gly-OH) | 91
CC(=O)OC[C@H](NC(=O)OCc1ccccc1)C(=O)NCC(=O)O [Carbobenzoxy-L-serylglycine β-acetate, Carbobenzoxy-L-serylqlycine β-acetate] (Cbz-Ser(Ac)-Gly-OH) | 0
O=COC[C@H](NC(=O)OCc1ccccc1)C(=O)NCC(=O)O [Carbobenzoxy-L-serylglycine β-formate, Carbobenzoxy-L-serylglycine β-Formate] (Cbz-Ser(For)-Gly-OH) | 56
CC(C)(C)OC(=O)CNC(=O)[C@H](CNC(N)=O)NC(=O)OCc1ccccc1 [Carbobenzoxy-β-(N-carbamoyl)-L-aminoalanylglycine tert-butyl Ester] | 0
CCOC(=O)CNC(=O)[C@H](COC(C)=O)NC(=O)OCc1ccccc1 [Carbobenzoxy-β-(O-acetyl)-L-serylglycine Ethyl Ester] (Cbz-Ser(Ac)-Gly-OEt) | 0
CCOC(=O)CNC(=O)[C@H](COC(=O)CCl)NC(=O)OCc1ccccc1 [Carbobenzoxy-β-(O-chloroacetyl)-L-serylglycine Ethyl Ester] (Cbz-Ser(ClAc)-Gly-OEt) | 76
CCOC(=O)CNC(=O)[C@H](COC=O)NC(=O)OCc1ccccc1 [Carbobenzoxy-β-(O-formyl)-L-serylglycine Ethyl Ester] (Cbz-Ser(For)-Gly-OEt) | 0
Carbobenzoxy-β-(O-carbamoyl)-L-serylglycine Ethyl Ester | 0

Same assay, conditions: 5 mM inhibitor; 20 min preincubation at 37° C.; first block r5-r22; read-out: Inhibition of tissue transglutaminase at an inhibitor concentration of 5 mM

Compound | inhibition at 5000 µM [%]
NC(=O)NC[C@H](NC(=O)OCc1ccccc1)C(=O)NCC(=O)O [Carbobenzoxy-β-ureido-L-alanylglycine] | 35
